Source: publication PMC7845544 (Frontiers in Pharmacology, 2021)
Values joined by “and” are separate entries in the source; they are usually repeats but may differ in a detail not shown here. Identical values can stand only once. “Also recorded” adds a separate entry of the source. Like-named read-outs stand apart in the source and are kept apart here.

How the values were obtained:
[1] = system: rat Leydig cells; test: Testosterone production from rat primary Leydig cells; assay type: cell-based; conditions: 3 h incubation
Procedure: Testes were obtained from 21 day old male SD rats, decapsulated into DMEM/F12 media, placed into a spinner flask containing pre-warmed 25 ml digestion media (DMEM/F12 no phenol red + 1 mg/ml Collagenase), and stirred at 37°C in 5% CO2 incubator for 10–15 min ([Hedger et al., 1990]). The digestion supernatant was passed through a 70 um cell strainer into a 50 ml tube, and the digestion was stopped with 0.1% BSA + 0.1 mg/ml trypsin soybean inhibitor) in 50 ml. The digested cells were centrifuged at 800 rpm for 5 min, the supernatant discarded and the cell pellet resuspend in 1 ml assay buffer (DMEM/F12 no phenol red +0.1% BSA) per paired testes. The cells were counted and diluted to 5 × 10^6 cells/ml, and 50 ul of this cell suspension was added to each well of a 96-well plate. Testes obtained from five 21 day old rats generally yielded 1 × 10^8 cells. […] At the end of incubation, media was collected and testosterone measured by ELISA (EIA‐1559, DRG).

[2] = microsomes
[3] = microsomes; remark: listed apart in the source
[4] = mouse, microsomes
[5] = molecular target: CYP3A4 (Homo sapiens, UniProt P08684); test: CYP time dependent inhibition; assay type: in vitro ADME
Chain of CYP3A4 (P08684 whole entry): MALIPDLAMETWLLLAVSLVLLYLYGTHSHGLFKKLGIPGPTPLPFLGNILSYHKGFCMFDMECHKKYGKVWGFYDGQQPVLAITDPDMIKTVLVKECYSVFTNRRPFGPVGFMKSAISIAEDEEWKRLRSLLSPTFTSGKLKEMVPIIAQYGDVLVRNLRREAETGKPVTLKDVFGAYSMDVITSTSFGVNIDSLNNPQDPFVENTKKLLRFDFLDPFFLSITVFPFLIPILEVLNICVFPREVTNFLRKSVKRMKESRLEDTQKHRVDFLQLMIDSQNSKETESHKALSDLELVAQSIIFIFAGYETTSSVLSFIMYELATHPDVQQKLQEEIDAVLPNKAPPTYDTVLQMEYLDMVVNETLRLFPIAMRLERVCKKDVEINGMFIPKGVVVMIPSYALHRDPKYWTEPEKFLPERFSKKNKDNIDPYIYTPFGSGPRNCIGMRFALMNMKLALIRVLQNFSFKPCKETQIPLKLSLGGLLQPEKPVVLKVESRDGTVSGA

[6] = molecular target: T1, hLH/CGR (Homo sapiens, UniProt P22888); test: cAMP (HTRF) in CHO cells transfected with hLH/CGR; assay type: cell-based; conditions: for EC50: compounds in presence of EC20 ligand (Figure 1 legend); for EC50 / % Response, CHO-hLH/CGR: mean ± SEM; for % Response, CHO-hLH/CGR: maximal cAMP vs maximal response of hCG
T1 construct: expressed in transfected cells
T1 sequence (P22888 27-699): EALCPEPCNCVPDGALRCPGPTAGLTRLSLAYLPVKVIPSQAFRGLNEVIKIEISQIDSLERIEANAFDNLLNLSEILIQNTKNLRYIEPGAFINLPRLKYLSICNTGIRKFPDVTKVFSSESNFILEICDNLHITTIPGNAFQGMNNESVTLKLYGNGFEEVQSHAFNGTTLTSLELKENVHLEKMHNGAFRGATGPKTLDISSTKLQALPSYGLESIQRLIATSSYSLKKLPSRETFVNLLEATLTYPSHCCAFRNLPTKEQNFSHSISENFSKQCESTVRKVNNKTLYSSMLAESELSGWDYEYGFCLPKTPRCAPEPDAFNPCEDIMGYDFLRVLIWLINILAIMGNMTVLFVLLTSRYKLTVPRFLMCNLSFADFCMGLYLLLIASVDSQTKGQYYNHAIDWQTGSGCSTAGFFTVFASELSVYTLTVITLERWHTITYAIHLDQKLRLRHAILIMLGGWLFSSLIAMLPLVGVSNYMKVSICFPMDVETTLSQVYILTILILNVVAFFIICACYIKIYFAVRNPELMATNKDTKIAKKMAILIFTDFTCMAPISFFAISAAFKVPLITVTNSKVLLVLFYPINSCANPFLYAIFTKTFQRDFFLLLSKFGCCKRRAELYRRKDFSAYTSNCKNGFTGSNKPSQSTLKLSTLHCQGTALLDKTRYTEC
Procedure: Chinese hamster ovary (CHO) cells transfected with hFSHR, hLHR or hTSHR were grown as described previously ([Kelton et al., 1992]; [Persani et al., 1993]; [Yu et al., 2014]). In brief, CHO-hFSHR and CHO-hTSHR were maintained in DMEM/F12 + 10% FBS in T150 culture flasks. The cells were cultured until they reached 70–80% confluence (three days) and were then used for assays or passaged. CHO-hLHR ([van de Lagemaat et al., 2009]; [Sriraman et al., 2014]) was cultured in MEM alpha (++) +10% FBS and G418, and passaged every three days. CHO-hFSHR or −hLHR or −hTSR cells (2,500/well) were plated in 5 µL of phenol red free DMEM/F12 + 1% FBS in 384 well solid white low volume plates (Greiner 784075) by Multidrop. […] The plates were incubated at 37°C for 1 h. After the incubation period, cAMP was measured by HTRF® (homogeneous time-resolved fluorescence) assay (CisBio, Bedford, MA). In brief, conditioned media were incubated with cryptate-labeled cAMP antibody and d2-labeled cAMP in lysis buffer for 1 h. Free cAMP produced by cells competes with cAMP-d2 for binding to the anti-cAMP cryptate. An increase in cellular cAMP leads to a decrease in fluorescence resonance energy transfer, which is detectable as a decrease in the emission at 665 nm, measured by Envision fluorescence reader (PerkinElmer, Waltham, MA). The readout was calculated fluorescence ratio (665/620 nm). Values given in percent (%) indicate the percent response at a certain concentration of agonist relative to the maximum response of the protein ligand standard.

[7] = Mouse pharmacokinetics; assay type: in vivo; conditions: 5 mg/kg; for Mouse PK F%: oral bioavailability
[8] = Rat pharmacokinetics; assay type: in vivo; conditions: for Rat PK %F: oral bioavailability
Procedure: […] Blood samples were collected at serial time points from 5 min to 24 h. The circulating concentrations of the compound in plasma samples were analyzed by HPLC. PK parameters were determined with Phoenix WinNonlin software (Pharsight Corporation, Sunnyvale, CA, United States) using a non-compartmental model.

[9] = system: rat granulosa cells; test: Rat granulosa cell assay measuring secreted estradiol; assay type: cell-based; conditions: for % Response, estradiol, +EC20 FSH / EC50 / % Response, estradiol, No FSH: 24 h, mean ± SEM; for fold improvement of EC50 for estradiol production by low concentration of rec-hFSH: rec-hFSH 0.2 pM
Procedure: All animals were maintained and handled under IACUC approved procedures at the respective institutions providing contracted service for TocopheRx, following procedures previously approved by local (MA, United States) IACUC reviews ([Sriraman et al., 2014]; [Yu et al., 2014]). Ovarian follicular granulosa cells were isolated from rats implanted with DES pellets (1 mg/day; 7-days release) at ChemPartner (Shanghai, China). The pellets were implanted subcutaneously on 22 day old rats with trochar, employing aseptic techniques after isoflurane anesthesia. Animals were euthanized on post-op day 3, ovaries were excised, cleaned, and granulosa cells were isolated by repeated disruption of the follicle as described previously. Granulosa cells isolated from four to five rats were used to culture one 96-well plate and an equal number of cells was plated in each well. The cells were cultured overnight at 37°C in media containing 5% FBS.
After overnight culture, the media was replaced with serum free media containing 0.1% BSA and 100 nM androstenedione. […] After 24 h of treatment, supernatant was collected and estradiol concentration was determined by ELISA (DRG, Mountainside, NJ, United States). The optical densities of the estradiol ELISA were measured by Spectramax (Sunnyvale, CA, United States). The values were analyzed in Microsoft Excel and Graphpad Prism (San Diego, CA, United States).

[10] = system: immature SD rats; test: Superovulation assay in immature rats; assay type: in vivo, rat; conditions: for minimal effective dose, cumulus oocyte complexes (COC): with low dose rec-hFSH (0.29 IU)
Procedure: Immature SD rats and B6C3F1 mice (both 18–21 day old females) were purchased from Charles-River laboratories (Wilmington, MA, United States and Shanghai, China). All animals were treated in accordance to Chempartner (Shanghai, China) or Embryotech (Haverhill, MA, United States) IACUC approved animal protocols. The animals were provided water and food ad libitum and housed under 12 h dark and 12 h light schedules.
Immature rats and mice were used to investigate the ability of the small molecules to induce follicular development and support ovulation as described elsewhere ([Steelman and Pohley, 1953]) with modifications ([Sriraman et al., 2014]). […] The isolated COC’s were treated with hyaluronidase and the total number of ovulated oocytes was determined microscopically.
Plasma concentrations of FSHR-AA were measured during superovulation assays, except for experiments where plasma was collected for estradiol measurements.

[11] = +EC20 FSH, read-out: EC50 (M), estradiol, +EC20 FSH
[12] = No FSH, read-out: EC50 (M), estradiol, No FSH

COc1cc2c(cc1-c1cnn(CCO)c1)-c1c(c(C(=O)N(C)C(C)(C)C)nn1-c1cc(Cl)cc(Cl)c1)CO2 [TOP5300]
testosterone production from cultured rat Leydig cells [1]: stimulated concentration-dependent increases in testosterone production
Clint, human [2]: 37 µl/min/mg protein
Clint, dog [3]: 37 µl/min/mg protein
Clint, mice [4]: 19 µl/min/mg protein
CYP TDI (3A4) [5]: Negative
EC50 [6]: 56.7 nM
% Response, CHO-hLH/CGR [6]: 95.68 ± 0.37%
Mouse PK AUC [7]: 5,533 ng*h/ml
Mouse PK Cmax [7]: 1,133 ng/ml
Mouse PK T1/2 [7]: 2.5 h
Mouse PK F% [7]: 22%
Rat PK AUC ([8]; 10 mg/kg): 2,655 ng*h/ml
Rat PK Cmax ([8]; 10 mg/kg): 237 ng/mL
Rat PK T1/2 ([8]; 10 mg/kg): 5.1 h
Rat PK %F ([8]; 10 mg/kg): 20%
% Response, estradiol, +EC20 FSH ([9]; +EC20 FSH): 125 ± 12%
EC50 [9, 11]: 1.75e-07 M
% Response, estradiol, No FSH ([9]; No FSH): 65 ± 6%
EC50 [9, 12]: 8.68e-07 M
fold improvement of EC50 for estradiol production by low concentration of rec-hFSH [9]: 2 fold
number of COCs vs 1.16 IU rec-hFSH ([10]; 50 mg/kg, oral, with 0.29 IU rec-hFSH): not significantly different from 1.16 IU rec-hFSHH
serum estradiol-17β production ([10]; 5, 10 and 25 mg/kg, immature rat): followed the follicular stimulation response
follicular maturation with or without supplemental rec-hFSH (0.29 IU) ([10]; immature rat, oral): full agonist
single daily dose (QD) vs twice daily (BID) administration, follicular maturation ([10]; immature rat, oral gavage, with 0.29 IU FSH): stimulates similar follicular growth; also recorded: equally effective as twice daily administrations
minimal effective dose, cumulus oocyte complexes (COC) ([10]; immature rat, oral): 5 mg/kg

COc1cc(C(N)=O)cc(-c2cc3c(cc2OC)OCc2c(C(=O)N(C)C(C)(C)C)nn(-c4cc(Cl)cc(Cl)c4)c2-3)n1 [TOP5668]
testosterone production from cultured rat Leydig cells [1]: very little activity
Clint, human [2]: 20 µl/min/mg protein
Clint, dog [3]: 44 µl/min/mg protein
Clint, mice [4]: 10 µl/min/mg protein
CYP TDI (3A4) [5]: Negative
Ratio of EC50 LHR/FSHR ([6]; CHO assays): 80
EC50 [6]: 176 nM
% Response, CHO-hLH/CGR [6]: 96.64 ± 0.61%
Mouse PK AUC [7]: 2,494 ng*h/ml
Mouse PK Cmax [7]: 312 ng/mL
Mouse PK T1/2 [7]: 3.57 h
Mouse PK F% [7]: 26%
fold lower exposure than TOP5300 ([8]; mature rat pharmacokinetic models): 3-4 fold
Rat PK AUC ([8]; 5 mg/kg): 1,530 ng*h/ml
Rat PK Cmax ([8]; 5 mg/kg): 132 ng/mL
Rat PK T1/2 ([8]; 5 mg/kg): 2.4 h
Rat PK %F ([8]; 5 mg/kg): 5% and 5.4%
% Response, estradiol, +EC20 FSH ([9]; +EC20 FSH): 117 ± 8%
EC50 [9, 11]: 7.33e-08 M
% Response, estradiol, No FSH ([9]; No FSH): 93%
EC50 [9, 12]: 1.82e-07 M
fold more potent than TOP5300, rat granulosa cells ([9]; estradiol production): 5 fold
fold improvement of EC50 for estradiol production by low concentration of rec-hFSH [9]: 2 fold
fold more potent than TOP5300, superovulation dose response ([10]; immature rat): approximately 2 fold
minimal effective dose, cumulus oocyte complexes (COC) ([10]; immature rat, oral): 2.5 mg/kg
